Data from PMC10202811 (Nature Medicine, 2023).
Several values for one entry are separate records, joined by “and”; a condition that tells them apart may be missing. Equal entries are not always repeated. Entries after “also recorded” stand apart in the source; their conditions may differ.

Columns and labels:
Format in all cases: in vivo, human
[1] = tested on: ALK-driven refractory or relapsed neuroblastoma; experiment: Soft tissue response by RECIST
From the text: Patients underwent disease staging at baseline, after courses 2 and 4 and then every four courses thereafter. The primary endpoint for response analysis is the BOR, defined as the best response observed before progression or start of another therapy. […] Response was graded according to the NANT response criteria version 2.0 (ref. [26]), modified from the International Neuroblastoma Response Criteria (INRC)[48]. NANT response criteria use three components for assessment of overall response: soft tissue response assessed by anatomical imaging and avidity on MIBG or FDG-PET; bone response assessed by uptake in bone by MIBG or bone involvement on FDG-PET; and bone marrow response assessed by morphology on bilateral aspirates and biopsies. Each response component (soft tissue, bone and bone marrow) are graded as CR, PR, SD and PD. Overall response grading is defined as: CR, if a response of CR in all components that are involved at baseline; PR, if a response of PR or better in all involved components; MR, if a response of PR or better but with at least one involved component as SD and no PD in all involved components; SD, if a response of SD in all involved components; and PD, if a response of PD in at least one involved component. The overall response definitions are identical to overall responses (CR, PR, SD and PD) as defined by the INRC. Response assessment is initially performed by sites and reviewed against source documents by NANT operations. Additional blinded central review of all radiological or pathological data was conducted for patients with overall PR or better and, in addition, radiologic pathological data of all involved sites for patients with MR to assign the final BOR on this study. Response by MIBG was determined using the Curie criteria. RR was determined as the proportion of patients with BOR of CR and PR in each cohort. […]

[2] = Real-time neurobehavioral monitoring of CNS effects
From the text: The Adaptive Behavior Assessment System 3rd edition (ABAS-3; Harrison & Oakland, 2015) parent-report and self-report forms were used for the assessment of adaptive skills for individuals across all ages. Internal consistency has been reported to be 0.96 or greater for the composite adaptive behavior scale and between 0.86 and 0.99 for the subscales. Construct, convergent and discriminant validity have also been established for this measure.
The Behavior Assessment System for Children 3rd edition (BASC-3; Reynolds & Kamphaus, 2015) is a questionnaire assessing behavioral, emotional and adaptive functioning across settings. For purposes of this study, the Parent Rating Scales (PRS) were administered for patients ages 2–5 years (Preschool form, PRS-P), 6–11 years (Child form, PRS-C) and 12–17 years (Adolescent form, PRS-A). The Self-Report of Personality (SRP) College Form was administered for adult patients ages 18–25 years. The reliability of the BASC-3 is strong, with internal consistency averaging above 0.80 for all the age-specific versions of this questionnaire, and average test–retest reliability is 0.86.
The Behavior Rating Inventory of Executive Function (BRIEF; Gioia et al. 2000) is a questionnaire designed to assess behavioral manifestations of executive functioning and includes multiple versions. Parents of participants aged 2–5 years completed the 63-item preschool version (BRIEF-P). Parents of participants aged 6–17 years completed the BRIEF parent form, which consists of 86 individual items from which eight clinical scales, two indices and one composite score are derived. Patients who were ≥18 years of age completed a 75-item self-report adult version (BRIEF-A). Scores are standardized by age and gender, and high internal consistency (0.73–0.98) and test–retest reliability (0.76–0.90) were observed. Construct, content, convergent and discriminant validity have been established.
CogState Research Battery (version 7; Sands et al. 2017; Heitzer et al. 2018) is a flexible battery of computer-based tests developed to monitor domains of cognition typically affected by cancer treatment, such as attention, memory, executive function and processing speed. Three different versions were used, one for children 3–5 years of age, one for children 6–9 years of age and one for patients 10 years of age and older. Age-standardized z-scores were derived based on the CogState normative dataset finalized in September 2014 for adults and in February 2016 for pediatrics, with construct validity, criterion validity, cultural equivalence and limited practice effects established.
Only measures with established language translations were used. If measures were not available in a patient’s primary language, neurobehavioral toxicity assessment was based on the treating physician’s clinical determination using CTCAE version 4.0 grading criteria. All measures were individually administered by trained, qualified site personnel. Standardized scores were obtained for each instrument administered by comparing raw scores to normative samples provided by the test publishers. All evaluation results were reviewed, analyzed and interpreted centrally in real time by a pediatric neuropsychologist. Determination of clinically meaningful change in functioning (that is, significant decline) relative to baseline or previous screening exam was made at each retest interval. This was calculated using reliable change indices (RCIs) for individual tests or scales, which account for standard errors of measurement, to determine whether a statistically significant change in scores occurred between two timepoints. Meaningful change in performance was considered to occur when clinically significant decline (using 90% CI) was present in 50% of select administered measures. […]

[3] = tested on: ALK-driven refractory or relapsed neuroblastoma; experiment: Progression-free survival and overall survival (Kaplan-Meier) by cohort; settings: individual patients (PID); for PFS status: source data of Figure 3; for PFS time, years since on study: time is censored where PFS status is No event; for OS time, years since on study: time is censored where vital status is Alive
From the text: Supplement 41591_2023_2297_MOESM8_ESM.xlsx, sheet "Figure 3" | column: PFS status; PFS time, years since on study; Vital status; OS time, years since on study

[4] = A1 (< 18 yrs), DL 5 (115 mg/m^2)
[5] = B2 (< 18yrs), DL 5 (115 mg/m^2)
[6] = patient with CNS DLT, A2 (≥ 18 yrs), 100 mg
[7] = patient with CNS DLT, B2 (< 18yrs), DL 5 (115 mg/m^2)
[8] = patients with CNS DLT, A2 (≥ 18 yrs), 150 mg

In the case of `C[C@H]1Oc2cc(cnc2N)-c2c(nn(C)c2C#N)CN(C)C(=O)c2ccc(F)cc21` [Lorlatinib, (10R)-7-amino-12-fluoro-2,10,16-trimethyl-15-oxo-10,15,16,17-tetrahydro-2H-8,4-(metheno)pyrazolo[4,3-h][2,5,11]-benzoxadiazacyclotetradecine-3-carbonitrile], the “Soft tissue % change from baseline” value ([1]; Cohort A1, individual patient) is reported as 1% and -3.77% and -4% and -7% and -17% and -21% and -29% and -36% and -41% and -50% and -63% and -70% and -100% and 200% and 121% and 100% and 61% and 20% and 6%, the “Soft tissue % change from baseline” value ([1]; Cohort A2, individual patient) is reported as 1% and -11% and -23% and -27% and -28% and -30% and -41% and -68% and the “Soft tissue % change from baseline” value ([1]; Cohort B2, individual patient) is reported as 1% and -9% and -12% and -45%. For the same compound, the “DLT Corresponding Neuropsych Symptoms, Cognitive” value [2, 4] was “Stable”, the “DLT Corresponding Neuropsych Symptoms, Psychosocial” value [2, 4] was “Adaptive Skills Depression” and the “DLT Corresponding Neuropsych Symptoms, Cognitive” value ([2]; A2 (≥ 18 yrs), 100 mg) was “Speed/Efficiency Working Memory Immediate Recall”. For the same compound, the “DLT Corresponding Neuropsych Symptoms, Psychosocial” value ([2]; A2 (≥ 18 yrs), 100 mg) was “Adaptive Skills Attention Working Memory”, the “DLT Corresponding Neuropsych Symptoms, Cognitive” value ([2]; A2 (≥ 18 yrs), 150 mg) was “Stable” and the “DLT Corresponding Neuropsych Symptoms, Psychosocial” value ([2]; A2 (≥ 18 yrs), 150 mg) was “Anxiety Depression Emotional Lability Atypicality^c; also recorded: Adaptive Skills Depression Emotional Lability Working Memory”. For the same compound, the “DLT Corresponding Neuropsych Symptoms, Cognitive” value [2, 5] was “Speed/ Efficiency Working Memory”, the “DLT Corresponding Neuropsych Symptoms, Psychosocial” value [2, 5] was “Adaptive Skills Anxiety” and the “Pre-Cycle Neuropsych Symptoms, Psychosocial” value ([2]; patient with CNS DLT, A1 (< 18 yrs), DL 5 (115 mg/m^2)) was “Atypicality Adaptive Skills”. The “Pre-Cycle Neuropsych Symptoms, Cognitive” value ([2]; patient with CNS DLT, A1 (< 18 yrs), DL 5 (115 mg/m^2), decline from baseline) was “Stable”, the “Pre-Cycle Neuropsych Symptoms, Cognitive” value [2, 6] was “Speed/ Efficiency Working Memory” and the “Pre-Cycle Neuropsych Symptoms, Psychosocial” value [2, 6] was “Adaptive Skills Attention”. For the same compound, the “Pre-Cycle Neuropsych Symptoms, Cognitive” value [2, 7] was “Speed/ Efficiency”, the “Pre-Cycle Neuropsych Symptoms, Psychosocial” value [2, 7] was “Atypicality Anxiety” and the “Pre-Cycle Neuropsych Symptoms, Cognitive” value [2, 8] was “Stable; also recorded: Visual Memory”. The “Pre-Cycle Neuropsych Symptoms, Psychosocial” value [2, 8] was “Adaptive Skills Anxiety Emotional Lability Working Memory Atypicality; also recorded: Depression Emotional Lability Working Memory”, the Vital status ([3]; cohort A1) was “Alive; also recorded: Deceased” and the PFS status ([3]; cohort A1) was “No event; also recorded: Relapsed/Deceased”. The “PFS time, years since on study” value ([3]; cohort A1) was 3.67 years and 0.13 years and 2.37 years and 0.10 years and 1.50 years and 0.08 years and 3.43 years and 0.31 years and 0.0657 years and 1.07 years and 1.17 years and 0.15 years and 0.30 years and 4.15 years and 0.28 years and 0.11 years and 0.16 years, the “OS time, years since on study” value ([3]; cohort A1) was 3.67 years and 0.74 years and 3.43 years and 0.10 years and 1.50 years and 0.40 years and 0.36 years and 0.32 years and 0.39 years and 0.16 years and 2.28 years and 1.68 years and 0.20 years and 1.46 years and 1.11 years and 0.48 years and 0.56 years and 0.37 years and 4.15 years and 0.65 years and 0.63 years and the Vital status ([3]; cohort A2) was “Alive; also recorded: Deceased”. For the same compound, the PFS status ([3]; cohort A2) was “No event; also recorded: Relapsed/Deceased”, the “PFS time, years since on study” value ([3]; cohort A2) was 4.39 years and 0.15 years and 0.82 years and 1.03 years and 0.80 years and 2.07 years and 0.89 years and 0.77 years and 0.32 years and 2.48 years and 2.24 years and 1.46 years and 1.34 years and 0.93 years and 0.73 years and the “OS time, years since on study” value ([3]; cohort A2) was 4.39 years and 0.51 years and 1.86 years and 1.14 years and 1.78 years and 3.47 years and 0.89 years and 1.27 years and 1.10 years and 2.48 years and 2.24 years and 1.46 years and 1.34 years and 0.93 years and 0.73 years. The Vital status ([3]; cohort B2) was “Deceased; also recorded: Alive”, the PFS status ([3]; cohort B2) was “Relapsed/Deceased; also recorded: No event” and the “PFS time, years since on study” value ([3]; cohort B2) was 0.50 years and 0.66 years and 0.13 years and 0.45 years and 1.28 years and 0.06 years and 0.44 years and 0.70 years and 0.16 years. For the same compound, the “OS time, years since on study” value ([3]; cohort B2) was 1.16 years and 0.66 years and 0.41 years and 0.79 years and 1.28 years and 0.22 years and 0.44 years and 0.70 years and 0.54 years.
